From PubChem BioAssay (NCI)
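In this assay, cells in 96-well plates receive the compound at five concentrations for 48 hours. Endpoints are linearly interpolated between the surrounding concentrations. TGI denotes the concentration required for complete inhibition of growth.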

Columns and labels:
P388/ADR leukemia = test: NCI tumour cell line growth inhibition, 48 h
P388 leukemia = test: NCI tumour cell line growth inhibition, 48 h

Compound: COc1cc2c(c(OC)c1OC)-c1ccc(OC)c(=O)cc1[C@@H](NC(C)=O)CC2
- TGI (P388/ADR leukemia): 55.9 µM
- TGI (P388 leukemia): 2.7 µM

Compound: CC1=CCCC2C1(C)CCC(C)C2(C)Cc1cc(O)ccc1O (stereo unspecified)
- TGI (P388/ADR leukemia): 13 µM
- TGI (P388 leukemia): 4.94 µM

Compound: O=C1NC2C(=CC(O)C(O)C2O)c2cc3c(cc21)OCO3 (stereo unspecified)
- TGI (P388/ADR leukemia): 0.714 µM
- TGI (P388 leukemia): 0.461 µM
